Data published in the supplement of paper PMC4954754.

Test system: HEK293T-Rex ERSE-FLuc
Test: EC50 for ERSE-FLuc reporter activation
Details: 18 h
Method: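 Dose-response of hit compounds in HEK293T-Rex cells stably expressing ERSE-FLuc or XBP1-RLuc reporters, 18 hr treatment, 1536-well; luminescence normalised to 500 nM thapsigargin (100%) and DMSO (0%), fitted to give EC50 (M) and maximal activation; '>' marks EC50 above the top tested dose (~17 µM).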

`Cc1nn(-c2ccc(F)cc2)c2ncc(C(=O)NCc3ccco3)c(Cl)c12` and `CCCNC(=O)c1cc(-c2ccc(F)cc2)on1` are within 1.5-fold of each other in “EC50 for ERSE-FLuc reporter activation” value: 15.3 µM for the first, 12 µM for the second.

`COCCNC(=O)c1cc(-c2cccs2)on1` and `O=C(NCCc1ccccc1)c1cc(-c2cccs2)on1` are within 1.5-fold of each other in “EC50 for ERSE-FLuc reporter activation” value: 15.5 µM for the first, 12.4 µM for the second.

`COc1ccc(C(=O)Nc2nnc(-c3cccs3)s2)cc1` and `COc1cccc(C(=O)Nc2nc3ccc(C)cc3s2)c1` cannot be ordered by “EC50 for ERSE-FLuc reporter activation” value: > 16.9 µM for the first, > 20.6 µM for the second.

Going from `CCOc1cc(C2C(C(=O)OC3CCCCC3)=C(C)NC3=C2C(=O)CC(c2ccc(OC)cc2)C3)cc(Br)c1O` (stereo unspecified) to `COc1cccc(C2=NOC(C(=O)Nc3cc(C)ccc3O)C2)c1` (stereo unspecified), the “EC50 for ERSE-FLuc reporter activation” value rises from 3.95 µM to 7.27 µM (1.8-fold).

`Cc1ccc(/C=N/NC(=O)c2cccc(F)c2)cc1` and `Cc1ccc(/C=N/NC(=O)c2cccc(Cl)c2)cc1` cannot be ordered by “EC50 for ERSE-FLuc reporter activation” value: > 16.9 µM for the first, > 16.9 µM for the second.

Compared with `Oc1ccc(-c2csc(-c3cccnc3)n2)cc1O`, `COc1ccc(-c2csc(-c3ccc(O)cc3)n2)cc1` is higher in “EC50 for ERSE-FLuc reporter activation” value: 7.5 µM for the first, > 19.1 µM for the second.

`Oc1cccc(/C=N/Nc2ccc(Cl)nn2)c1O` and `O=C(N/N=C/c1cccc(O)c1O)c1ccccc1I` cannot be ordered by “EC50 for ERSE-FLuc reporter activation” value: > 17.9 µM for the first, > 16.9 µM for the second.

First: CCN1C(=O)/C(=C\c2ccc(O)cc2O)SC1=S
Second: NN1C(=O)/C(=C/c2ccc(O)c(O)c2)SC1=S
The “EC50 for ERSE-FLuc reporter activation” value of the first is higher: > 16.9 µM for the first, 11.7 µM for the second.

`COc1ccc(-n2nnnc2SCC(N)=O)c(OC)c1` and `COc1cccc(Nc2nc(-c3ccc(OC)c(F)c3)cs2)c1` cannot be ordered by “EC50 for ERSE-FLuc reporter activation” value: > 16.9 µM for the first, > 16.9 µM for the second.

`CCOc1ccc(NC(=O)c2cccc(F)c2)c([N+](=O)[O-])c1` and `CCOc1ccc(NC(=O)c2ccc3c(c2)OCO3)c([N+](=O)[O-])c1` cannot be ordered by “EC50 for ERSE-FLuc reporter activation” value: > 14.3 µM for the first, > 18.6 µM for the second.

`CC(C)CC(c1nnnn1C1CCCC1)N1CCN(C(=O)c2ccco2)CC1` (stereo unspecified) and `COc1ccc2[nH]c3c(N4CCCCC4)ncnc3c2c1` cannot be ordered by “EC50 for ERSE-FLuc reporter activation” value: > 16.9 µM for the first, > 17.1 µM for the second.

`O=C(COC(=O)c1cc(O)c(O)c(O)c1)Nc1ccc(Br)cc1F` and `CC(Oc1ccc(Cl)cc1Cl)C(=O)NNC(=O)c1ccc(O)c(O)c1` (stereo unspecified) cannot be ordered by “EC50 for ERSE-FLuc reporter activation” value: > 16.9 µM for the first, > 14.9 µM for the second.

`N#C/C(=C\c1ccc(O)c(O)c1)C(=O)Nc1ccccc1` and `N#C/C(=C/c1ccc(O)c(O)c1)c1nc2ccccc2[nH]1` cannot be ordered by “EC50 for ERSE-FLuc reporter activation” value: 24.6 µM for the first, > 16.9 µM for the second.

`O=[N+]([O-])c1ccc(/C=C/c2ccc(O)cc2)cc1` and `O=C1N/C(=C\c2ccc(O)cc2)C(O)=C1C=NCc1ccccc1` cannot be ordered by “EC50 for ERSE-FLuc reporter activation” value: > 15.3 µM for the first, > 16.9 µM for the second.

Going from `Cc1ccc(O)c(N/C=C/C(=O)c2cccs2)c1` to `Cc1ccc(O)c(NC(=S)NC(=O)/C=C/c2ccco2)c1`, the “EC50 for ERSE-FLuc reporter activation” value rises from 5.29 µM to > 16.9 µM.

`CN(C)c1ccc(C2C(C#N)=C(N)Oc3c2sc2ccccc32)cc1[N+](=O)[O-]` (stereo unspecified) and `N#CC1=C(N)Oc2c(ccc3ccccc23)C1c1ccsc1` (stereo unspecified) cannot be ordered by “EC50 for ERSE-FLuc reporter activation” value: > 17.2 µM for the first, > 18.3 µM for the second.

`N#Cc1c(NC(=O)c2cnccn2)sc2c1CCCC2` and `N#Cc1c(NC(=O)c2cccc(F)c2)sc2c1CCC2` cannot be ordered by “EC50 for ERSE-FLuc reporter activation” value: > 17.9 µM for the first, > 16.5 µM for the second.

`C/C(=N\NC(=O)c1n[nH]c2c1CCCC2)c1ccc2ccccc2c1` and `COc1cccc(/C=N/NC(=O)c2n[nH]c3c2CCCC3)c1` cannot be ordered by “EC50 for ERSE-FLuc reporter activation” value: > 16.9 µM for the first, > 16.9 µM for the second.

`COc1ccccc1/C=N/Nc1nc(-c2ccccc2)cc(=O)[nH]1` and `COc1cc2ccccc2cc1C(=O)N/N=C/c1cccs1` cannot be ordered by “EC50 for ERSE-FLuc reporter activation” value: > 16.9 µM for the first, > 16.9 µM for the second.

`Cc1ccc(/C=C(\C#N)C(=O)Nc2cccc(Cl)c2)o1` and `COc1ccc(NC(=O)/C(Cl)=C\c2ccccc2)cc1` cannot be ordered by “EC50 for ERSE-FLuc reporter activation” value: > 16.9 µM for the first, > 16.9 µM for the second.

`COc1ccccc1-c1nnc(Nc2nc3c(OC)cccc3s2)o1` and `COc1ccccc1-c1cc(C(=O)Nc2cc(C)ccc2O)no1` cannot be ordered by “EC50 for ERSE-FLuc reporter activation” value: > 16.9 µM for the first, > 16.9 µM for the second.

Going from `Cc1cc(C)nc(/N=C(\N)Nc2ccc(OCCC(C)C)cc2)n1` to `CCCCCOc1ccc(N/C(N)=N/c2nc(C)cc(C)n2)cc1`, the “EC50 for ERSE-FLuc reporter activation” value falls from > 15.5 µM to 10.4 µM.

Compared with `Cc1ccc(O)c(N=CC2=C(O)c3ccccc3C2=O)c1`, `COc1ccccc1OCC(=O)Nc1cc(C)ccc1O` is higher in “EC50 for ERSE-FLuc reporter activation” value: 3.75 µM for the first, > 16.9 µM for the second.

Going from `Cn1cccc1/C=C1/SC(=Nc2ccccc2)NC1=O` to `O=C1NC(=Nc2ccc(F)cc2)S/C1=C\c1ccc(O)c(O)c1`, the “EC50 for ERSE-FLuc reporter activation” value falls from > 16.7 µM to 6.92 µM.

Going from `COc1cccc(/C=N/NC(=O)c2ccc(NC(=O)c3ccc(C)cc3)cc2)c1O` to `Nc1ccccc1NC(=O)c1ccc(C(=O)Nc2ccccc2N)cc1`, the “EC50 for ERSE-FLuc reporter activation” value falls from > 16.9 µM to 7.17 µM.

`CC(=O)Nc1ccc2nc(-c3ccc(OC(C)=O)cc3)sc2c1` and `CCCNC(=O)c1ccc2nc(-c3ccc4[nH]ccc4c3)sc2c1` cannot be ordered by “EC50 for ERSE-FLuc reporter activation” value: > 16.9 µM for the first, > 17.4 µM for the second.

`NC(=O)c1c(NC(=O)COc2ccccc2)sc2c1CCC2` and `N#Cc1c(NC(=O)c2ccc3ncsc3c2)sc2c1CCC2` cannot be ordered by “EC50 for ERSE-FLuc reporter activation” value: > 13.2 µM for the first, > 16.6 µM for the second.

`Oc1ccc(-c2cnc3c(Nc4ccc5[nH]ccc5c4)nccn23)cc1` and `O=C(Nc1ccc(O)cc1)c1ccc2ccccc2c1` cannot be ordered by “EC50 for ERSE-FLuc reporter activation” value: > 16.9 µM for the first, > 16.9 µM for the second.

`CNC(=O)c1ccccc1Nc1cc(NC(=O)Cc2ccc(F)c(F)c2)ncc1C(F)(F)F` and `O=C(Nc1ccccc1O)c1cc2ccccc2o1` cannot be ordered by “EC50 for ERSE-FLuc reporter activation” value: > 16.9 µM for the first, > 21 µM for the second.

Compared with `CCc1ccc(NC(=O)/C=C/c2ccco2)cc1`, `CCCCCC(=O)Nc1ccc(C(=O)Nc2ccccc2O)cc1` is lower in “EC50 for ERSE-FLuc reporter activation” value: > 16.8 µM for the first, 8.09 µM for the second.

First: COC(=O)c1ccc2c(COC(C)=O)c(OC(C)=O)ccc2c1COC(C)=O
Second: COc1cc(/C=C/c2ccc(O)c(OC)c2)ccc1O
The “EC50 for ERSE-FLuc reporter activation” value of the first is lower: 14.7 µM for the first, > 16.9 µM for the second.

Going from `CC1(C)Cc2ccccc2/C(=C/C(=O)C(=O)N/N=C/c2ccc(O)c(O)c2)N1` to `O=C(N/N=C/c1ccc(O)c(O)c1)c1ccc(Br)cc1`, the “EC50 for ERSE-FLuc reporter activation” value falls from > 16.9 µM to 16 µM.

Going from `O=C(Nc1ccccc1O)c1ccc(NS(=O)(=O)c2cccc3cccnc23)cc1` to `O=C(c1ccccc1)c1c(O)ccc2c(C(=O)c3ccccc3)c(O)ccc12`, the “EC50 for ERSE-FLuc reporter activation” value rises from 10 µM to > 12.5 µM.

`O=C(N/N=C/c1ccc(Cl)cc1Cl)c1ccc(O)c(O)c1` and `O=C(N/N=C/c1cccc(Cl)c1Cl)c1ccccc1O` cannot be ordered by “EC50 for ERSE-FLuc reporter activation” value: > 16.9 µM for the first, > 16.9 µM for the second.

`O=C(N/N=C\c1ccccc1[N+](=O)[O-])c1[nH]nc2c1CCc1ccccc1-2` and `O=C(N/N=C/c1ccc(Cl)cc1)c1n[nH]c2c1CCCC2` cannot be ordered by “EC50 for ERSE-FLuc reporter activation” value: > 16.9 µM for the first, > 16.9 µM for the second.

Compared with `O=C(CCCN1CCC2(CC1)C(=O)N(Cc1cccc(F)c1)CN2c1ccccc1)c1ccc(F)cc1`, `O=C(NCCc1ccc(O)cc1)c1ccc2nc(-c3csc4ccccc34)sc2c1` is 2.6-fold higher in “EC50 for ERSE-FLuc reporter activation” value: 4.46 µM for the first, 11.6 µM for the second.

Compared with `O=c1/c(=C/c2ccc(O)c(O)c2)sc2nc3ccccc3n12`, `Cc1ccc(O)c(NC(=O)c2cc(-c3ccc(O)cc3)on2)c1` is 1.5-fold higher in “EC50 for ERSE-FLuc reporter activation” value: 6.02 µM for the first, 9.05 µM for the second.

`COc1cccc(C(=O)Nc2sc3c(c2C#N)CC(C)CC3)c1` (stereo unspecified) and `Cc1ccc(C(=O)Nc2sc3c(c2C#N)CCC3)cc1` cannot be ordered by “EC50 for ERSE-FLuc reporter activation” value: > 16.6 µM for the first, > 16.7 µM for the second.

Going from `CCCCNNC(=O)c1ccc(Br)cc1` to `CN(C)c1ccc(/C=N/NC(=O)c2cccc(Br)c2)cc1`, the “EC50 for ERSE-FLuc reporter activation” value rises from 4.91 µM to > 16.9 µM.

Compared with `CCOc1ccc(/C=C(\C#N)c2[nH]nc(N)c2C#N)cc1OCC`, `Cc1ccc(O)c(NC(=O)CSc2n[nH]c(C)c2[N+](=O)[O-])c1` is 1.7-fold lower in “EC50 for ERSE-FLuc reporter activation” value: 10 µM for the first, 5.79 µM for the second.

`COc1cccc(-c2nc3ccc(N)cc3[nH]2)c1` and `COc1cccc(-c2cc(C(=O)Nc3cc(C)ccc3O)no2)c1` cannot be ordered by “EC50 for ERSE-FLuc reporter activation” value: > 16.9 µM for the first, > 16.9 µM for the second.

First: O=C(CCCCCCC(=O)Nc1ccccc1)NO
Second: CCCNc1ccnc(N2CCc3ccccc3C2)n1
The “EC50 for ERSE-FLuc reporter activation” value of the first is lower: 6.58 µM for the first, > 17.7 µM for the second.

Going from `CC(=O)NC1C(OC2OC(CC(O)C3OC(n4ccc(=O)[nH]c4=O)C(O)C3O)C(O)C(O)C2NC(=O)/C=C\CCCCCCCCCC(C)C)OC(CO)C(O)C1O` (stereo unspecified) to `Cc1ccc2c(N)c(C(=O)c3ccc4c(c3)OCO4)sc2n1`, the “EC50 for ERSE-FLuc reporter activation” value rises from 0.521 µM to > 16.9 µM.
